Values of other authors, collected in patent US20030149013A1, “Methods of treating bacterial infections in dogs and cats” (priority 2001, published 2003).
Like-named read-outs stand apart in the source and are kept apart here.

Key:
[1] = dog

Rat t1/2 (IM (intramuscular)) | Canine t1/2 ([1]; IM (intramuscular)) | Structure (SMILES) | Rat t1/2 (PO (per os)) | Canine t1/2 ([1]; PO (per os))
– | – | CC1=C(C(=O)O)N2C(=O)[C@@H](NC(=O)[C@H](N)C3=CCC=CC3)[C@H]2SC1 [Cephadrine] | 0.82 (PO) h | 3.64 (P0) h
0.5 (IM) h | 0.97 (IM) h | O=C(Cc1cccs1)N[C@@H]1C(=O)N2C(C(=O)[O-])=C(C[n+]3ccccc3)CS[C@H]12 [Cephalordine] | – | –
